Assay results as given in patent US20110045101A1, “FUNGICIDAL SUBSTITUTED AZOLES” (E.I. Du Pont De Nemours and Company, priority 2009, published 2011).
Marks after values point to notes of the source that are not given here.

What was measured:
Type in all cases: in vivo
Settings in all cases: 100 = 100% disease control
[1] = test system: Puccinia recondita f. sp. tritici; assay: Test I: wheat leaf rust on wheat seedlings, sprayed the day before inoculation, visual disease rating
Procedure, shortened: (§1)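 Compounds were dissolved in acetone (3% of final volume), then suspended in 50/50 acetone/water with 250 ppm Trem 014 surfactant and sprayed to run-off on test plants. A 200 ppm suspension equals 500 g/ha. Ratings are at 200 ppm unless flagged as 40 ppm.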

[2] = test system: Puccinia recondita f. sp. tritici; assay: Test H: wheat leaf rust, test suspension sprayed after inoculation of wheat seedlings, visual disease rating
Procedure, shortened: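 Wheat seedlings inoculated with P. recondita spores, held 24 h saturated at 20 °C, then 2 days in growth chamber at 20 °C; compound suspension (acetone/water with Trem 014) sprayed to run-off afterwards. Rated visually; 200 ppm (≈500 g/ha) unless marked *, which denotes 40 ppm.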

Septoria nodorum = assay: Test F: wheat glume blotch on wheat seedlings, sprayed the day before inoculation, visual disease rating
Procedure, shortened: as §1

Septoria tritici = assay: Test G: wheat leaf blotch on wheat seedlings, sprayed the day before inoculation, visual disease rating
Procedure, shortened: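 Spray to run-off, 200 ppm (≈500 g/ha; starred = 40 ppm), acetone/water 50/50 + 250 ppm Trem® 014. Spore inoculation +1 d. 24° C saturated 48 h → 20° C 19 d. Visual rating.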

[3] = test system: Erysiphe graminis f. sp. tritici; assay: Test J: wheat powdery mildew on wheat seedlings, sprayed the day before inoculation, visual disease rating
Procedure, shortened: as §1

Alternaria solani = assay: Test D: tomato early blight, sprayed the day before inoculation, visual disease rating
Procedure, shortened: as §1

Botrytis cinerea = assay: Test C: tomato Botrytis on tomato seedlings, sprayed the day before inoculation, visual disease rating
Procedure, shortened: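 Tomato seedlings sprayed to run-off with compound suspended in acetone/water with 250 ppm Trem 014 surfactant, at 200 ppm (≈500 g/ha) or 40 ppm where marked, one day before Botrytis cinerea inoculation. Disease rated visually.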

[4] = 200 ppm, 0 = no control relative to controls

Row | Compound | Test I disease control rating [1, 4] | Test H disease control rating [2, 4] | Test F disease control rating (Septoria nodorum; [4]) | Test G disease control rating (Septoria tritici; [4]) | Test J disease control rating [3, 4] | Test D disease control rating (Alternaria solani; [4]) | Test C disease control rating (Botrytis cinerea; [4]) | Test I disease control rating ([1]; 40 ppm (marked *)) | Test H disease control rating ([2]; 40 ppm (marked *)) | Test F disease control rating (Septoria nodorum; 40 ppm (marked *)) | Test G disease control rating (Septoria tritici; 40 ppm (marked *)) | Test J disease control rating ([3]; 40 ppm (marked *)) | Test D disease control rating (Alternaria solani; 40 ppm (marked *)) | Test C disease control rating (Botrytis cinerea; 40 ppm (marked *))
1 | COc1cc(F)c(-c2c(Cl)nc(Cl)n2-c2ccc(Cl)nc2Cl)c(F)c1 [compound 674] | 100% | 98% | 98% | 99% | 94% | 93% | 99% |  |  |  |  |  |  | 
2 | COc1cc(F)c(-c2c(Cl)nc(Cl)n2-c2cccnc2C)c(F)c1 [compound 675] | 100% | 100% | 99% | 98% | 100% | 100% | 100% |  |  |  |  |  |  | 
3 | COc1cc(F)c(-c2c(Cl)nc(Cl)n2-c2cccnc2OC)c(F)c1 [compound 676] | 100% | 99% | 99% | 99% | 98% | 99% | 100% |  |  |  |  |  |  | 
4 | COc1cc(F)c(-c2c(Cl)nc(Cl)n2-c2cc(C)cnc2Cl)c(F)c1 [compound 677] | 100% | 100% | 100% | 99% | 100% | 100% | 100% |  |  |  |  |  |  | 
5 | COc1cc(F)c(-c2c(Cl)nc(Cl)n2-c2cncc(Br)c2)c(F)c1 [compound 678] | 100% | 100% | 100% | 99% | 100% | 100% | 100% |  |  |  |  |  |  | 
6 | N#Cc1ccc(F)c(-c2c(Cl)nc(Cl)n2-c2ccc(F)cc2)c1F [compound 679] | 100% | 18% | 99% | 99% | 100% | 100% | 100% |  |  |  |  |  |  | 
7 | Cc1ccc(-n2c(Cl)nc(Cl)c2-c2c(F)ccc(C#N)c2F)cc1 [compound 680] | 100% | 0% | 98% | 100% | 100% | 100% | 99% |  |  |  |  |  |  | 
8 | N#Cc1ccc(F)c(-c2c(Cl)nc(Cl)n2-c2cccc(F)c2)c1F [compound 681] | 99% | 0% | 98% | 99% | 100% | 100% | 99% |  |  |  |  |  |  | 
9 | Cc1nc(Br)n(-c2ccc(Cl)nc2)c1-c1c(F)cccc1F [compound 682] | 100% | 97% | 99% | 100% | 100% | 100% | 100% |  |  |  |  |  |  | 
10 | COc1cc(F)c(-n2cnc(C)c2-c2cccc(F)c2)c(F)c1 [compound 683] |  |  |  |  |  |  |  | 0* % | 8* % | 0* % | 67* % | 98* % | 97* % | 100* %
11 | CCOc1ccc(F)c(-c2c(Cl)nc(C)n2-c2ccc(Cl)cc2)c1F [compound 684] | 99% | 53% | 100% | 99% | 100% | 100% | 100% |  |  |  |  |  |  | 
12 | COc1cc(F)c(-n2c(Cl)nc(C)c2-c2cccc(F)c2)c(F)c1 [compound 686] |  |  |  |  |  |  |  | 99* % | 98* % | 82* % | 98* % | 98* % | 100* % | 100* %
13 | COc1cc(F)c(-n2c(Br)nc(C)c2-c2cccc(F)c2)c(F)c1 [compound 687] |  |  |  |  |  |  |  | 100* % | 100* % | 99* % | 98* % | 100* % | 100* % | 100* %
